Data as given in patent EP0028270A1, “Pyrazino-carbazoles, process for their preparation and pharmaceutical compositions containing them” (CASSELLA Aktiengesellschaft, priority 1979, dated 1981).

How the values were obtained:
Tetrabenazin = assay: Tetrabenazine antagonism (antidepressant activity); format: in vivo; conditions: for ED50: no unit, species or route given, read-out: Tetrabenazin Dosis Antagonismus ED50; for LD50/ED50: ratio of LD50 to tetrabenazine antagonism ED50
Acute toxicity (LD50) = format: in vivo; conditions: no unit, species or route given

Row | SMILES | ED50 (Tetrabenazin) [mg/kg] | LD50/ED50 (Tetrabenazin) | LD50 (Acute toxicity (LD50)) [mg/kg]
1 | Cc1ccc2c(c1)c1c3n2CCNC3CCC1.Cl (centres unmarked) [8-Methyl-2,3,3a,4,5,6-hexahydro-1H-pyrazino[3,2,1-jk]-carbazol-Hydrochlorid, reference compound] | 14 | 8,7 | 
2 | Cc1ccc2c(c1)c1c3n2CCN=C3CCC1.Cl [Beispiel 1, 8-Methyl-2,4,5,6-tetra-hydro-1H-pyrazino[3,2,1-jk]carbazol-Hydrochlorid] | 4 | 18,0 | 72
3 | COc1ccc2c(c1)c1c3n2CCN=C3CCC1.Cl [Beispiel 2, 8-Methoxy-2,4,5,6-tetra-hydro-1H-pyrazino[3,2,1-jk]carbazol-Hydrochlorid] | 2 | 18,5 | 37
